The text below walks through data of patent publication US20230190756A1, “PHARMACEUTICAL FORMULATION FOR THE ELIMINATION OF CAUSATIVE AGENTS OF HERPESVIRAL INFECTIONS FROM THE TISSUES OF A MACROORGANISM” (priority 2017, published 2023).

One assay deals with EBV lymphoma cells. The conditions noted are these: cited from earlier work.
For the next assay, the system named is HDAC. Particulars: cited from earlier work.
The nature of assay [1]: Biological activity of fully substituted derivatives (test not specified). The source says: Also, peak (2) was not divided into several small fragments, nor was it possible to separate it using different conditions of thin layer chromatography, which indicates the stable nature of the formed supramolecular structure from different derivatives.
In another assay the test system is EBV infection. The conditions noted are these: cited from earlier work.
For assay [2], the system named is p300-induced p65 acetylation. The conditions noted are these: in vitro and in vivo; cited from earlier work.

Consider `Nc1ccccc1NC(=O)c1ccc(CNC(=O)OCc2cccnc2)cc1` [MS275], for which the “effective concentrations for sensitizing to ganciclovir” value with EBV lymphoma cells is given as “effective at nanomolar concentrations”.
Take trichostatin A [TCA]: in the assay on HDAC, the IC50% result was “in the nanomolar region”.
On to “octasuccinyl epigalocatechin [Fully succinylated epigalocatechin]”, for which the biological activity result in assay [1] was “did not exhibit biological activity”.
Regarding “octasuccinyl glycyrrhizin [Fully succinylated glycyrrhizin]”, in assay [1], the biological activity result was “did not exhibit biological activity”.
Still for that read-out and setting: next, “octaacetyl glycyrrhizin [fully acetylated glycyrrhizin]”: “did not exhibit biological activity”.
Still for that read-out and setting: next, “octaacetyl epigalocatechin [fully acetylated epigalocatechin]”: “did not exhibit biological activity”.
On to `O=C(O[C@@H]1Cc2c(O)cc(O)cc2O[C@@H]1c1cc(O)c(O)c(O)c1)c1cc(O)c(O)c(O)c1` [No 13 (Table 1), epigallocatechin gallate], for which, in the assay on EBV infection, the “expression of cytokines induced by EBV infection” value was “completely blocks”. In assay [2], the “p300-induced p65 acetylation” value was “cancels”.
